ChEMBL document CHEMBL1152616, “The biological activity and metabolic stability of peptidic bifunctional compounds that are opioid receptor agonists and neurokinin-1 receptor antagonists with a cystine moiety” (Bioorg Med Chem, 2009)
pEC50, pIC50: −log10 of the molar value. Active and inactive are the calls of the source. The rule behind the calls is not given here. Positions of bridges follow the written chain, without caps; N, C: chain ends. Non-standard residues stand in square brackets, D forms with d. Residues, ends and D or L forms follow the SMILES beside them. *: point of attachment. NH(3,5-(CF3)2-benzyl) = FC(F)(F)c1cc(CN*)cc(C(F)(F)F)c1; Nle = CCCC[C@H](N)C(=O)O

How the values were obtained:
[1] = target: Delta-type opioid receptor (Mus musculus, UniProt P32300); test: Agonist activity at delta opioid receptor in mouse vas deferens assessed as inhibition of electrically-stimulated contraction; type: functional, tissue-based
Sequence of Delta-type opioid receptor (Mus musculus, UniProt P32300) (P32300 whole entry): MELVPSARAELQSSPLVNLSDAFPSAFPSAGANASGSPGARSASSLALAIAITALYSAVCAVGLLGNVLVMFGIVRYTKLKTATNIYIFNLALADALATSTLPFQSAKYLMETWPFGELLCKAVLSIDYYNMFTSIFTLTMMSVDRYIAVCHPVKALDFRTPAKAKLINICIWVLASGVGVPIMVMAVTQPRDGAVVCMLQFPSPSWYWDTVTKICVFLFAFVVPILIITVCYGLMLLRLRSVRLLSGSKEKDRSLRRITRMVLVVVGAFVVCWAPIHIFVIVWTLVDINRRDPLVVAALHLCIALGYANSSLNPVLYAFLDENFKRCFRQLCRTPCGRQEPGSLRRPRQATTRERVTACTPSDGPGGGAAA

Mu-type opioid receptor [2] = target: Mu-type opioid receptor (Cavia porcellus, UniProt P97266); test: Agonist activity at mu opioid receptor in guinea pig ileum assessed as inhibition of electrically-stimulated contraction; type: functional, tissue-based
Sequence of Mu-type opioid receptor (Cavia porcellus, UniProt P97266) (P97266 whole entry): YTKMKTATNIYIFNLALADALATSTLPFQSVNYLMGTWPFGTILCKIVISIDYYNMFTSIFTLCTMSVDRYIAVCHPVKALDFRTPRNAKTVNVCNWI

[3] = target: T1, Delta-type opioid receptor (Homo sapiens, UniProt P41143); test: Displacement of [3H]DPDPE from human delta opioid receptor expressed in HN9.10 cells; type: cell-based
T1 sequence (P41143 whole entry): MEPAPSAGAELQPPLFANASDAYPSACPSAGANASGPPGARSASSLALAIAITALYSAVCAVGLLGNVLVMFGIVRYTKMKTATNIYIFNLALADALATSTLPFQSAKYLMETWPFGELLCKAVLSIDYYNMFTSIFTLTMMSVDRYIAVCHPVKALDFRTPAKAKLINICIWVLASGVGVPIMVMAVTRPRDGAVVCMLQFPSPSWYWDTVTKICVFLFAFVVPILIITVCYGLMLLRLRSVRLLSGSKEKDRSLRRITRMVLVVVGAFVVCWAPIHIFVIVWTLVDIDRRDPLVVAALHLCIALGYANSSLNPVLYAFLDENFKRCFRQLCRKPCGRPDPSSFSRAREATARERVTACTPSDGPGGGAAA

Mu-type opioid receptor [4] = target: T2, Mu-type opioid receptor (Rattus norvegicus, UniProt P33535); test: Displacement of [3H]DAMGO from rat mu opioid receptor expressed in HN9.10 cells; type: cell-based
T2 sequence (P33535 whole entry): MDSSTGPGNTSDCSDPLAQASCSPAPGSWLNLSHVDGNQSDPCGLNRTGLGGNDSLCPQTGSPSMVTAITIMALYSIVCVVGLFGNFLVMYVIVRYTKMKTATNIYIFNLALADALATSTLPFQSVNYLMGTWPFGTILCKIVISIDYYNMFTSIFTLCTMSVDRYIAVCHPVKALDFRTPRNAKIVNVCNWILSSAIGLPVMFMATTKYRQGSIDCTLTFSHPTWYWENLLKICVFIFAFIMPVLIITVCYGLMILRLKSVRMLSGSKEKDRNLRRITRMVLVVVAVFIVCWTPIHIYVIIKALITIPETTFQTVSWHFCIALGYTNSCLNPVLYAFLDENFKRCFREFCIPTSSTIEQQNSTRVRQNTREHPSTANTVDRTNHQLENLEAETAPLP

[5] = target: Mu-type opioid receptor (Cavia porcellus) (UniProt P97266); test: Agonist activity at mu opioid receptor in guinea pig ileum assessed as inhibition of electrically-stimulated contraction at 1 uM; type: functional, tissue-based
Sequence of Mu-type opioid receptor (Cavia porcellus) (P97266 whole entry): as the sequence (P97266 whole entry) above

Substance-P receptor [6] = target: Substance-P receptor (Rattus norvegicus, UniProt P14600); test: Displacement of [3H]substance P from rat NK1 receptor expressed in CHO cell membranes; design: species or system Membrane
Sequence of Substance-P receptor (Rattus norvegicus, UniProt P14600) (P14600 whole entry): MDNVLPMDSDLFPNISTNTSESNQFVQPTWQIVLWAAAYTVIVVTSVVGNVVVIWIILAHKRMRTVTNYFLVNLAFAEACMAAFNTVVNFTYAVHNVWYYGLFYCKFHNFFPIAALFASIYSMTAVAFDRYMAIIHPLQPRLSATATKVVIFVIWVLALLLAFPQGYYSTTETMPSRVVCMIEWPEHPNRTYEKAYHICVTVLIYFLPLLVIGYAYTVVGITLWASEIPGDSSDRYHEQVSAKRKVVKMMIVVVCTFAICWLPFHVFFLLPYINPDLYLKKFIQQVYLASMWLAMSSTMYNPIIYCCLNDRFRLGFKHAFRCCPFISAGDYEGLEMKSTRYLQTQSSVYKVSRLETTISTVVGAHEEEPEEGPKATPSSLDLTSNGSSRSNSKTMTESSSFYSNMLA

[7] = target: Mu-type opioid receptor (Cavia porcellus) (UniProt P97266); test: Antagonist activity at mu opioid receptor in guinea pig ileum assessed as effect on electrically-stimulated contraction at 1 uM; type: functional, tissue-based
[8] = target: Substance-P receptor (Cavia porcellus) (UniProt P30547); conditions: Ileum
Sequence of Substance-P receptor (Cavia porcellus) (P30547 whole entry): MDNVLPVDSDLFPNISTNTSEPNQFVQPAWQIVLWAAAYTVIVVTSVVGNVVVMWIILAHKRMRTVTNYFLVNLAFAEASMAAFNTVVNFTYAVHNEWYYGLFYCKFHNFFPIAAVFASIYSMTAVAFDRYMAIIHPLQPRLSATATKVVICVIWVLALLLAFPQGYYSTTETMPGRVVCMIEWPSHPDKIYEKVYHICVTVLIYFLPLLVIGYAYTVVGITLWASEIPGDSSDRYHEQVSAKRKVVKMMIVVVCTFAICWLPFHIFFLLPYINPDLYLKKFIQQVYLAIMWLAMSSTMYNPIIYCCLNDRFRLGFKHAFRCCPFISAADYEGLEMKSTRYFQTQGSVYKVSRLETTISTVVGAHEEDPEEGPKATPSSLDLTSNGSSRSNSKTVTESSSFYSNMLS
Description: Antagonist activity at NK1 receptor in guinea pig ileum assessed as inhibition of substance P-induced muscle contraction in presence of naloxone

Substance-P receptor [9] = target: Substance-P receptor (Homo sapiens, UniProt P25103); test: Displacement of [3H]substance P from human NK1 receptor expressed in CHO cell membranes
Sequence of Substance-P receptor (Homo sapiens, UniProt P25103) (P25103 whole entry): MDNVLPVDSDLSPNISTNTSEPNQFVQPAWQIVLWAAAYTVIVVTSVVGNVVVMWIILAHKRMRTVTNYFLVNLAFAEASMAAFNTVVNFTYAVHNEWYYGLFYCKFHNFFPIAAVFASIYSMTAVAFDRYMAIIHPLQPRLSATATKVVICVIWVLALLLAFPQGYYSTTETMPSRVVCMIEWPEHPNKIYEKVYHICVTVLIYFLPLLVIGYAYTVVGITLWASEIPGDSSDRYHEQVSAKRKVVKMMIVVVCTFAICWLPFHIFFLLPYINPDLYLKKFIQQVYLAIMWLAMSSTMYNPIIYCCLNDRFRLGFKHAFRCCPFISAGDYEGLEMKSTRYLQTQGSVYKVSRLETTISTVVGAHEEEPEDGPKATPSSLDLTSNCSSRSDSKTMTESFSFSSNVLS

[10] = target: T1, Delta-type opioid receptor; test: Agonist activity at human delta opioid receptor expressed in HN9.10 cells assessed as stimulation of [35S]GTPgammaS binding; type: functional, cell-based
[11] = Half life in rat plasma at 37 degC; type: ADME, cell-free
[12] = target: Mu-type opioid receptor (Rattus norvegicus) (UniProt P33535); test: Agonist activity at rat mu opioid receptor expressed in HN9.10 cells assessed as stimulation of [35S]GTPgammaS binding relative to untreated basal control; type: functional, cell-based
Sequence of Mu-type opioid receptor (Rattus norvegicus) (P33535 whole entry): as the sequence (P33535 whole entry) above

[13] = target: T1, Delta-type opioid receptor; test: Agonist activity at human delta opioid receptor expressed in HN9.10 cells assessed as stimulation of [35S]GTPgammaS binding relative to untreated basal control; type: functional, cell-based
Mu-type opioid receptor [14] = target: T2, Mu-type opioid receptor; test: Agonist activity at rat mu opioid receptor expressed in HN9.10 cells assessed as stimulation of [35S]GTPgammaS binding; type: functional, cell-based
[15] = Metabolic stability in rat plasma assessed as parent compound remaining at 37 degC after 24 hrs; type: ADME, cell-free; conditions: read-out: Stability

## CSCC[C@H](NC(=O)[C@H](Cc1ccccc1)NC(=O)CNC(=O)[C@@H](C)NC(=O)[C@@H](N)Cc1ccc(O)cc1)C(N)=O
[1]
  pIC50: 7.44
Mu-type opioid receptor [2]
  pIC50: 7.35

## CC(C)C[C@H](NC(=O)[C@@H]1CCCN1C(=O)[C@@H]1CSSC[C@@H](NC(=O)[C@@H](N)Cc2ccc(O)cc2)C(=O)NCC(=O)N[C@@H](Cc2ccccc2)C(=O)N1)C(=O)N[C@@H](Cc1c[nH]c2ccccc12)C(=O)NCc1cc(C(F)(F)F)cc(C(F)(F)F)c1
[3]
  pIC50: 7.65
Mu-type opioid receptor [4]
  pIC50: 6.37
[5]
  inhibition: 10%
Substance-P receptor [6]
  pIC50: 5.75
[7]
  Activity: Active

## CC(C)C[C@H](NC(=O)[C@@H]1CCCN1C(=O)[C@H]1CSSC[C@@H](NC(=O)[C@@H](N)Cc2ccc(O)cc2)C(=O)NCC(=O)N[C@@H](Cc2ccccc2)C(=O)N1)C(=O)N[C@@H](Cc1c[nH]c2ccccc12)C(=O)NCc1cc(C(F)(F)F)cc(C(F)(F)F)c1
[3]
  pIC50: 7.81
Mu-type opioid receptor [4]
  pIC50: 6.94
Substance-P receptor [6]
  pIC50: 6.86

## CCCC[C@@H]1NC(=O)[C@H](Cc2ccccc2)NC(=O)CNC(=O)[C@H](NC(=O)[C@@H](N)Cc2ccc(O)cc2)CSSC[C@@H](C(=O)N[C@@H](Cc2c[nH]c3ccccc23)C(=O)NCc2cc(C(F)(F)F)cc(C(F)(F)F)c2)NC(=O)[C@@H]2CCCN2C1=O (H-Y[dC]GF[Nle]PCW-{NH(3,5-(CF3)2-benzyl)}; disulfide 2-7)
[8]
  Ke: 2.2 nM
[3]
  pIC50: 8.57
Substance-P receptor [9]
  pIC50: 9.73
Mu-type opioid receptor [4]
  pIC50: 6.78
[10]; read-out: pEC50 (converted)
  EC50: 0.0174 nM
[11]
  half-life: > 6 h
Substance-P receptor [6]
  pIC50: 7.02
[12]
  Emax: 36%
Mu-type opioid receptor [2]
  pIC50: 6.00
[13]
  Emax: 11%
Mu-type opioid receptor [14]
  pEC50: 7.44

## CCCC[C@@H]1NC(=O)[C@H](Cc2ccccc2)NC(=O)CNC(=O)[C@H](NC(=O)[C@@H](N)Cc2ccc(O)cc2)CSSC[C@H](C(=O)N[C@@H](Cc2c[nH]c3ccccc23)C(=O)NCc2cc(C(F)(F)F)cc(C(F)(F)F)c2)NC(=O)[C@@H]2CCCN2C1=O (H-Y[dC]GF[Nle]P[dC]W-{NH(3,5-(CF3)2-benzyl)}; disulfide 2-7)
[8]
  Ke: 12 nM
[3]
  pIC50: 6.93
Substance-P receptor [9]
  pIC50: 9.31
Mu-type opioid receptor [4]
  pIC50: 6.50
[10]; read-out: EC50
  pEC50: 7.89
[11]
  half-life: > 6 h
[5]
  inhibition: 3%
Substance-P receptor [6]
  pIC50: 7.65
[12]
  Emax: 9%
[15]
  remaining at 24 h: 70%
[7]
  Activity: Active
[13]
  Emax: 110%
Mu-type opioid receptor [14]
  pEC50: 7.66
